Key:
HeLa cells = test: Intracellular ROS generation (H2DCFDA); assay type: cell-based, human; details: no inhibitor pretreatment, 2 μM 1 h + 6 h, light λ > 610 nm, 23 mW cm-2, 14 J cm-2
Experimental: The enzyme-responsive intracellular ROS generation of 1 was then examined in A549 and HeLa cells using 2′,7′-dichlorodihydrofluorescein diacetate (H2DCFDA) as the ROS fluorescent probe. Once H2DCFDA is internalized, it will be deacetylated by the intracellular esterase, followed by oxidation by the intracellular ROS, leading to the formation of the highly fluorescent 2′,7′-dichlorofluorescein (DCF).[79] The cells were first pretreated with SB-3CT (10 μM) and/or CA-074 Me (25 μM) or simply the neat medium for 2 h, followed by incubation with 1 (2 μM) for a further 1 h. As a negative control, the cells were simply incubated with 14 (2 μM) for 1 h. After being rinsed with PBS, the cells were incubated in the medium for a further 6 h. Finally, the cells were incubated with H2DCFDA (10 μM) for 30 min, followed by dark or light (λ > 610 nm, 23 mW cm^–2, 14 J cm^–2) treatment. […] It can be seen that for the MMP-2-positive A549 cells, the fluorescence due to DCF was in the following order: 1 without pretreatment of the cells with the two inhibitors > 1 with pretreatment of the cells with either one of the two inhibitors > 1 with pretreatment of the cells with both inhibitors ≈ 14. […] This trend, which reflects the extent of recovery of ROS generation, was in accord with that of the fluorescence recovery inside the cells (Figure 5c,d). For the MMP-2-negative HeLa cells, the intracellular fluorescence remained very weak even for 1 without pretreatment of the cells with the two inhibitors because of the intrinsically low MMP levels in the cells. […]
or ER-Tracker Green (Thermo Fisher Scientific Inc., E34251) (1 μM for 15 min) in a serum-free medium at 37 °C. […] All the trackers were excited at 488 nm and their fluorescence was monitored at 500−570 nm, while the DSBDP moiety was excited at 638 nm and its fluorescence was monitored at 650−750nm. The images were digitized and analyzed using a Leica Application Suite X software. […]
at 500−550 nm. The images were digitized and analyzed using a Leica Application Suite X […]

[1] = Stability in PBS and cathepsin B working buffer without enzymes (absorption/fluorescence spectra); assay type: physicochemical; details: 1 μM, PBS pH 7.4 or buffer pH 5.0 (25 mM NaOAc, 1 mM EDTA, 500 μM GSH), 0.1% Tween 80, 37 °C, 25 h

## CCN(CC)c1ccc2nc3ccc(/N=N/c4ccc(N(C)CCCNC(=O)OC[C@@H]5[C@@H]6CCc7nnn(CC(=O)NCCCC[C@@H]8NC(=O)CNC(=O)[C@H](CCCCN)NC(=O)[C@H](CCCNC(=N)N)NC(=O)[C@H](C(C)C)NC(=O)CNC(=O)[C@H](CC(C)C)NC(=O)[C@@H]9CCCN9C(=O)[C@H](CCCCN)NC(=O)[C@@H](N)CSCc9cc(COc%10ccc(C%11=C%12C(C)=C(I)C(/C=C/c%13ccc(OCCOCCOCCOC)cc%13)=[N+]%12[B-](F)(F)n%12c(/C=C/c%13ccc(OCCOCCOCCOC)cc%13)c(I)c(C)c%12%11)cc%10)cc(c9)CSC[C@@H](C(N)=O)NC(=O)[C@H](CCCCN)NC(=O)[C@H](CCCCN)NC(=O)CNC(=O)[C@H](CC(C)C)NC(=O)[C@H](Cc9ccccc9)NC(=O)CNC(=O)[C@H](CCCCN)NC(=O)CNC8=O)c7CC[C@@H]65)cc4)cc3[n+](-c3ccccc3)c2c1 [compound 1]
HeLa cells
  intracellular ROS generation (DCF fluorescence): very weak
[1]
  stability in the absence of enzymes: stable

Source: paper PMC10080691, “Enzyme-Responsive Double-Locked Photodynamic Molecular Beacon for Targeted Photodynamic Anticancer Therapy” (Journal of the American Chemical Society, 2023)
